These results are taken from patent publication US8969335B2, “Benzonitrile derivatives as kinase inhibitors” (MERCK PATENT GmbH, priority 2011, dated 2015).

The target of test [1] is TANK binding kinase (TBK1) (Homo sapiens (Human), UniProt Q9UHD2). The test is described as follows: TBK1 enzyme assay (384-well flashplate kinase assay). Type of test: biochemical. Conditions: 0.6 nM TBK1, 10 μM ATP, 30° C., 120 min.
Experimental: Test for the Inhibition of TBK1
0.6 nM TANK binding kinase (TBK1), 800 nM biotinylated MELK-derived peptide (Biotin-Ah-Ah-[sequence]) and 10 μM ATP (spiked with 0.25 μCi of ^33P-ATP/well) are incubated at 30° C. for 120 min in a total volume of 50 μl (10 mM MOPS, 10 mM Mg acetate, 0.1 mM EGTA, 1 mM DTT, 0.02% of Brij35, 0.1% of BSA, pH 7.5) with or without test compound. The reaction is stopped with 25 μl of 200 mM EDTA. After 30 min at room temperature, the liquid is removed, and each well is washed three times with 100 μl of 0.9% sodium chloride solution. Non-specific reaction is measured in the presence of 100 nM staurosporine. The radioactivity is measured in a Topcount (PerkinElmer).
The target in another test is IKKε (Homo sapiens (Human), UniProt Q14164). Nature of the test: IKKε kinase assay (384-well flashplate assay). The note with it: 1 nM IKKε, 10 μM ATP, 30° C., 2 hours; read-out: IKKε enzyme assay IC50. Format: biochemical. On the procedure:
Test for the Inhibition of IKKε
IKKε—Kinase Assay (IKKepsilon)
The kinase assay is performed as 384-well flashplate assay (for example for Topcount measurement).
1 nM IKKε, 800 nM biotinylated IκBα(19-42) peptide (Biotin-C6-C6-[…]) and 10 μM ATP (spiked with 0.3 μCi of ^33P-ATP/well) are incubated at 30° C. for 2 hours in a total volume of 50 μl (10 mM MOPS, 10 mM Mg acetate, 0.1 mM EGTA, 1 mM dithiothreitol, 0.02% of Brij35, 0.1% of BSA, 0.1% of BioStab, pH 7.5) with or without test compound. The reaction is stopped using 25 μl of 200 mM EDTA. After 30 min at room temperature, the liquid is removed, and each well is washed three times with 100 μl of 0.9% sodium chloride solution. Non-specific reaction is determined in the presence of 3 μM MSC2119074 (BX-795). The radioactivity is measured using a Topcount (PerkinElmer). The results (for example IC50 values) are calculated using program tools provided by the IT Department (for example AssayExplorer, Symyx).

Chain of TANK binding kinase (TBK1) (Q9UHD2 whole entry): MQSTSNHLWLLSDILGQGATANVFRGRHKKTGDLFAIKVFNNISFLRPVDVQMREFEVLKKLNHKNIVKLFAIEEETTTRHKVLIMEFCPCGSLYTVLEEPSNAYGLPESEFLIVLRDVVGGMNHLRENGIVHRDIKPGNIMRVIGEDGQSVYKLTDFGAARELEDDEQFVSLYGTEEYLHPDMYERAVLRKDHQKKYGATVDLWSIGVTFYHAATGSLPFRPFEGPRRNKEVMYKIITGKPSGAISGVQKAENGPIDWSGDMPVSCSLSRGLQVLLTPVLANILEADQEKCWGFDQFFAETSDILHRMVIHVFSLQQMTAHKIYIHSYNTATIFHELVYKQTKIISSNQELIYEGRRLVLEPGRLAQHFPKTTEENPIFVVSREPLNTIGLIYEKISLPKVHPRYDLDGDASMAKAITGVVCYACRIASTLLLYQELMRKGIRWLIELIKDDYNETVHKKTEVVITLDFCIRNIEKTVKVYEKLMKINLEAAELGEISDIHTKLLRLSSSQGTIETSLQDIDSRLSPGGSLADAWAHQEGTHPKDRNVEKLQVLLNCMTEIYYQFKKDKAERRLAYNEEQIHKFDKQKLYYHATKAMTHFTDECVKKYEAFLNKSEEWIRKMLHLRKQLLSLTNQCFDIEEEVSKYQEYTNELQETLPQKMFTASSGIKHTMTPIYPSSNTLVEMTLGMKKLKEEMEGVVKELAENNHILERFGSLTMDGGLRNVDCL
Chain of IKKε (Q14164 whole entry): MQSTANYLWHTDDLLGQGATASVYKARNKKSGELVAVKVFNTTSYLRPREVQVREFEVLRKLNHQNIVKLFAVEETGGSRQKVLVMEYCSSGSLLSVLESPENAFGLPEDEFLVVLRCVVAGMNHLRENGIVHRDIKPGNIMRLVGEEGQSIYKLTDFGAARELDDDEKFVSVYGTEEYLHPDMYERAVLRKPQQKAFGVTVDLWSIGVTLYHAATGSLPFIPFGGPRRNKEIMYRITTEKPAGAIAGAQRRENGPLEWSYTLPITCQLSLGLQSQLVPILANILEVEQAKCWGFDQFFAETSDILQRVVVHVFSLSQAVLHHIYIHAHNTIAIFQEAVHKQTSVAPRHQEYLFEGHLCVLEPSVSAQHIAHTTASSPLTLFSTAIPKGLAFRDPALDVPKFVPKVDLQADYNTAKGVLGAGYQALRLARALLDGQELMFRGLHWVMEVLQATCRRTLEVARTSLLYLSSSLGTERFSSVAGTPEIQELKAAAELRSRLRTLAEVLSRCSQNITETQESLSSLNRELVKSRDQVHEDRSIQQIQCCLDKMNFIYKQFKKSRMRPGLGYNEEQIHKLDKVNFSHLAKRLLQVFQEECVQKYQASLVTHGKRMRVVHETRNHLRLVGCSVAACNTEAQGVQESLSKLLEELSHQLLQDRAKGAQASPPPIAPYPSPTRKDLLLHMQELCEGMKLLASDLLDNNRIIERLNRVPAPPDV

As a reminder, the IC50 is the point on the concentration scale where inhibition reaches its midpoint. Take `N#Cc1cc(-c2ccnc(Nc3cnn(CCC4CCNCC4)c3)n2)ccc1OC1CCOCC1` [Compound A45, 5-{2-[1-(2-Piperidin-4-ylethyl)-1H-pyrazol-4-ylamino]pyrimidin-4-yl}-2-(tetrahydropyran-4-yloxy)benzonitrile]: the IC50 (in test [1]; on IKKε) was 2 nM throughout.

Take `COCCn1cc(Nc2cc(-c3ccc(OCC4CCC4)c(C#N)c3)ccn2)cn1` [Compound A110, 2-cyclobutylmethoxy-5-{2-[1-(2-methoxyethyl)-1H-pyrazol-4-ylamino]-pyridin-4-yl}benzonitrile]: the IC50 stood at 490 nM in test [1] and 82 nM on IKKε.

For `N#Cc1cc(-c2ccnc(Nc3ccc4oc(C(N)=O)cc4c3)c2)ccc1OC1CCOCC1` [Compound A19, 5-{4-[3-Cyano-4-(tetrahydropyran-4-yloxy)phenyl]pyridin-2-ylamino}benzofuran-2-carboxamide], the figures for the IC50 (in test [1]; at IKKε) were 1900 nM and 390 nM, respectively.

For `N#Cc1cc(-c2ccnc(Nc3cn[nH]c3)c2)ccc1OCC1CCC1` [Compound A109, 2-cyclobutylmethoxy-5-[2-(1H-pyrazol-4-ylamino)pyridin-4-yl]benzonitrile], the IC50 in test [1] stood at 380 nM; at IKKε it was 140 nM.

With `CC(=O)N1CCC(COc2ccc(-c3ccnc(Nc4ccc(N5CCOCC5)cn4)c3)cc2C#N)CC1` [Compound A117, 2-(1-acetylpiperidin-4-ylmethoxy)-5-[2-(5-morpholin-4-ylpyridin-2-ylamino)pyridin-4-yl]benzonitrile], the IC50 was 810 nM in test [1] and 610 nM on IKKε.

Consider `CC(=O)N1CCC(COc2ccc(-c3ccnc(Nc4cnn(C5CCNCC5)c4)c3)cc2C#N)CC1` [Compound A116, 2-(1-acetylpiperidin-4-ylmethoxy)-5-[2-(1-piperidin-4-yl-1H-pyrazol-4-ylamino)pyridin-4-yl]benzonitrile], for which the IC50 was found to be 6600 nM in test [1] and 190 nM at IKKε.

`N#Cc1cc(-c2ccnc(Nc3cnn(C[C@H]4C[C@@H]4CO)c3)c2)ccc1OC1CCOCC1` [Compound A26, 5-{2-[1-((1S,2S)-2-Hydroxymethylcyclopropylmethyl)-1H-pyrazol-4-ylamino]-pyridin-4-yl}-2-(tetrahydropyran-4-yloxy)benzonitrile]: the IC50 in test [1] was 18 nM; at IKKε it was 27 nM.

`N#Cc1cc(-c2ccnc(Nc3nccnc3CO)c2)ccc1OC1CCOCC1` [Compound A102, 5-[2-(3-hydroxymethylpyrazin-2-ylamino)pyridin-4-yl]-2-(tetrahydropyran-4-yloxy)benzonitrile]: the 50% inhibitory concentration (IC50) in test [1] worked out at 350 nM; on IKKε it was 430 nM.

For `N#Cc1cc(-c2ccnc(Nc3ccc(CO)cn3)c2)ccc1OCC1CCC1` [Compound A111, 2-cyclobutylmethoxy-5-[2-(5-hydroxymethylpyridin-2-ylamino)pyridin-4-yl]benzonitrile], the IC50 came to 89 nM in test [1] and 200 nM on IKKε.

Take `N#Cc1cc(-c2ccnc(Nc3cc(C(=O)O)ccn3)c2)ccc1OC1CCOCC1` [Compound A65, 2-{4-[3-cyano-4-(tetrahydropyran-4-yloxy)phenyl]pyridin-2-ylamino}isonicotinic acid]: the IC50 in test [1] amounted to 170 nM; at IKKε, 120 nM.

In the case of `N#Cc1cc(-c2ccnc(Nc3cc(CO)ccn3)n2)ccc1OC1CCOCC1` [Compound A70, 5-[2-(4-hydroxymethylpyridin-2-ylamino)pyrimidin-4-yl]-2-(tetrahydropyran-4-yloxy)benzonitrile], the IC50 worked out at 180 nM in test [1] and 140 nM on IKKε.

As to `CC(C)(C)c1cc(Nc2cc(-c3ccc(OC4CCOCC4)c(C#N)c3)ccn2)on1` [Compound A31, 5-[2-(3-tert-Butylisoxazol-5-ylamino)pyridin-4-yl]-2-(tetrahydropyran-4-yloxy)benzonitrile], the figures for the half-maximal inhibitory concentration (IC50) (in test [1]; on IKKε) were 860 nM and 850 nM, respectively.

`N#Cc1cc(-c2ccnc(Nc3cc(CO)ccn3)c2)ccc1OC1CCOCC1` [Compound A18, 5-[2-(4-Hydroxymethylpyridin-2-ylamino)pyridin-4-yl]-2-(tetrahydropyran-4-yloxy)benzonitrile]: the IC50 is 8 nM in test [1] and 13 nM on IKKε.

Turning to `N#Cc1cc(-c2ccnc(Nc3ccc(C4CCOCC4)nn3)c2)ccc1OC1CCOCC1` [Compound A100, 2-(tetrahydropyran-4-yloxy)-5-{2-[6-(tetrahydropyran-4-yl)pyridazin-3-yl-amino]pyridin-4-yl}benzonitrile], the IC50 came to 14 nM in test [1] and 39 nM on IKKε.

Consider `COCCn1cc(Nc2cc(-c3ccc(OCC4CCN(C(C)=O)CC4)c(C#N)c3)ccn2)cn1` [Compound A114, 2-(1-acetylpiperidin-4-ylmethoxy)-5-{2-[1-(2-methoxyethyl)-1H-pyrazol-4-ylamino]pyridin-4-yl}benzonitrile], for which the IC50 in test [1] came out at 5500 nM; on IKKε it was 650 nM.

Consider `N#Cc1cc(-c2ccnc(Nc3cnn(CCC4CCN(C(=O)CN)CC4)c3)c2)ccc1OC1CCOCC1` [Compound A30, 5-[2-(1-{2-[1-(2-Aminoacetyl)piperidin-4-yl]ethyl}-1H-pyrazol-4-ylamino)pyridin-4-yl]-2-(tetrahydropyran-4-yloxy)benzonitrile], for which the IC50 is 42 nM in test [1] and 45 nM at IKKε.

Turning to `N#Cc1cc(-c2ccnc(Nc3ccc(CO)cn3)c2)ccc1OC1CCOCC1` [Compound A15, 5-[2-(5-Hydroxymethylpyridin-2-ylamino)pyridin-4-yl]-2-(tetrahydropyran-4-yloxy)benzonitrile], the IC50 in test [1] was found to be 14 nM; at IKKε, 21 nM.

In the case of `COCCn1cc(Nc2cc(-c3ccc(OCC4CC4)c(C#N)c3)ccn2)cn1` [Compound A105, 2-cyclopropylmethoxy-5-{2-[1-(2-methoxyethyl)-1H-pyrazol-4-ylamino]-pyridin-4-yl}benzonitrile], the IC50 in test [1] amounted to 220 nM; on IKKε, 65 nM.

On to `N#Cc1cc(-c2ccnc(Nc3cncc(N4CCOCC4)n3)c2)ccc1OC1CCOCC1` [Compound A85, 5-[2-(6-morpholin-4-ylpyrazin-2-ylamino)pyridin-4-yl]-2-(tetrahydropyran-4-yloxy)benzonitrile], for which the IC50 was 330 nM in test [1] and 390 nM on IKKε.

With `N#Cc1cc(-c2ccnc(Nc3cnn(CCn4cccn4)c3)n2)ccc1OC1CCOCC1` [Compound A43, 5-{2-[1-(2-Pyrazol-1-ylethyl)-1H-pyrazol-4-ylamino]pyrimidin-4-yl}-2-(tetrahydropyran-4-yloxy)benzonitrile], the IC50 in test [1] was 70 nM; on IKKε, 65 nM.

On to `N#Cc1cc(-c2ccnc(Nc3cnn(CCn4cccn4)c3)c2)ccc1OC1CCOCC1` [Compound A38, 5-{2-[1-(2-Pyrazol-1-ylethyl)-1H-pyrazol-4-ylamino]pyridin-4-yl}-2-(tetrahydropyran-4-yloxy)benzonitrile], for which the IC50 in test [1] worked out at 460 nM; at IKKε, 320 nM.

`N#Cc1cc(-c2ccnc(Nc3ccc(CN4CC5(COC5)C4)cn3)c2)ccc1OC1CCOCC1` [Compound A88, 5-{2-[5-(2-oxa-6-azaspiro[3.3]hept-6-ylmethyl)pyridin-2-yl-amino]pyridin-4-yl}-2-(tetrahydropyran-4-yloxy)benzonitrile]: the IC50 in test [1] is 41 nM; at IKKε, 45 nM.

As to `N#Cc1cc(-c2ccnc(Nc3nccc(C4CCNCC4)n3)c2)ccc1OC1CCOCC1` [Compound A89, 5-[2-(4-piperidin-4-ylpyrimidin-2-ylamino)pyridin-4-yl]-2-(tetrahydropyran-4-yloxy)benzonitrile], the IC50 in test [1] was determined as 140 nM; on IKKε, 120 nM.

Consider `N#Cc1cc(-c2ccnc(Nc3cnn(C4CNC4)c3)c2)ccc1OC1CCOCC1` [Compound A25, 5-[2-(1-Azetidin-3-yl-1H-pyrazol-4-ylamino)pyridin-4-yl]-2-(tetrahydropyran-4-yloxy)benzonitrile], for which the IC50 was found to be 290 nM in test [1] and 67 nM at IKKε.

On to `N#Cc1cc(-c2ccnc(Nc3cnn(C4CCNC4)c3)n2)ccc1OC1CCOCC1` (stereo not shown) [Compound A40, 5-[2-(1-Pyrrolidin-3-yl-1H-pyrazol-4-ylamino)pyrimidin-4-yl]-2-(tetrahydropyran-4-yloxy)benzonitrile], for which the IC50 stood at 7 nM in test [1] and 5 nM at IKKε.

Consider `N#Cc1cc(-c2ccnc(Nc3cnn(CCN4CCOCC4)c3)n2)ccc1OC1CCOCC1` [Compound A39, 5-{2-[1-(2-Morpholin-4-ylethyl)-1H-pyrazol-4-ylamino]pyrimidin-4-yl}-2-(tetrahydropyran-4-yloxy)benzonitrile], for which the results for the IC50 (in test [1]; on IKKε) were 16 nM and 25 nM, respectively.

As to `Cn1nc(Nc2nccc(-c3ccc(OC4CCOCC4)c(C#N)c3)n2)ccc1=O` [Compound A68, 5-[2-(1-methyl-6-oxo-1,6-dihydropyridazin-3-ylamino)pyrimidin-4-yl]-2-(tetrahydropyran-4-yloxy)benzonitrile], the IC50 in test [1] was 160 nM; on IKKε, 200 nM.

`N#Cc1cc(-c2ccnc(Nc3ncc4c(n3)CCNC4)c2)ccc1OC1CCOCC1` [Compound A36, 2-(Tetrahydropyran-4-yloxy)-5-[2-(5,6,7,8-tetrahydropyrido[4,3-d]pyrimidin-2-ylamino)pyridin-4-yl]benzonitrile]: the IC50 on IKKε is 140 nM.
